# From patent US12590075B2, “Refining method” (NGK Insulators, Ltd., priority 2020, dated 2026)
# Assay: Dissolution time / dissolution rate of the raw material in a solvent (stereoscopic microscope, heating stage)
# Format: physicochemical
# Conditions: heating stage 50±5° C., order of solvents; for Dissolution rate of the raw material (Arranged in order from the fastest to the slowest): 25 mg compound in 2 mL solvent
# Protocol: The dissolution time of the raw material of febuxostat in a solvent was examined as described below. […] First, a heating stage ([…], Mettler) was installed in a stereoscopic microscope (SZX16, Olympus Corporation), and the surface temperature of the heating stage was maintained at 50±5° C. 25 mg of febuxostat (product code […], Tokyo Chemical Industry Co., Ltd.) was weighed into a flat laboratory dish (φ32 mm×16 mm), and 2 mL of the solvent was weighed and added to the laboratory dish, which was then immediately covered with a glass lid. The laboratory dish was placed on the heating stage. […] As a result, the dissolution time was ethanol<2-propanol<acetonitrile (in other words, the dissolution rate was ethanol>2-propanol>acetonitrile). […] The dissolution times of the raw materials of loxoprofen and diclofenac in the solvents were also examined in the same manner as febuxostat.
Dissolution rate of the raw material (Arranged in order from the fastest to the slowest),Dissolution rate of the raw material (Arranged in order from the fastest to the slowest) (listed as febuxostat),"dissolution time (25 mg in 2 mL solvent, time until no undissolved material observed)",Structure (SMILES)
"Ethanol, Ethanol/IPA^※1",,,"O=C(O)Cc1ccccc1Nc1c(Cl)cccc1Cl [Diclofenac, diclofenac]"
"Ethanol, 2-propanol, Acetonitrile",ethanol>2-propanol>acetonitrile,ethanol<2-propanol<acetonitrile,"Cc1nc(-c2ccc(OCC(C)C)c(C#N)c2)sc1C(=O)O [Febuxostat, febuxostat]"
"Ethanol, 2-propanol",,,"CC(C(=O)O)c1ccc(CC2CCCC2=O)cc1 (centres unmarked) [Loxoprofen, loxoprofen]"
